Consider 16 compounds from PubChem BioAssay AID328 (DTP/NCI, 2004).

Values joined by “and” are separate entries in the source; they are usually repeats but may differ in a detail not shown here. Equal entries are not always repeated. Inconclusive results and toxic doses are left out.

This assay deals with BDF1 mice, P388 leukemia ip, median survival T/C. Description: NCI In Vivo Anticancer Drug Screen. Data for tumor model P388 Leukemia (intraperitoneal) in B6D2F1 (BDF1) mice. Particulars: endpoint: median survival time, higher = longer survival. An outline of the steps:
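Vehicle-dosed animals serve as the reference; survival of compound-dosed, tumour-implanted mice is divided by it.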

Setting [1] is: dose: 100.0 mg/kg/injection, schedule: Q01DX009 (ip), vehicle: saline.
Setting [2] is: dose: 100.0 mg/kg/injection, schedule: Q01DX009 (ip), vehicle: saline with Tween-80.
Setting [3] is: dose: 200.0 mg/kg/injection, schedule: Q01DX009 (ip), vehicle: saline with Tween-80.
[4] abbreviates: dose: 100.0 mg/kg/injection, schedule: Q04DX003 (ip), vehicle: Klucel (hydroxypropylcellulose) (HPC).
The mark [5] stands for this setting: dose: 100.0 mg/kg/injection, schedule: Q04DX003 (ip), vehicle: saline with Tween-80.
[6] abbreviates: dose: 200.0 mg/kg/injection, schedule: Q04DX003 (ip), vehicle: Klucel (hydroxypropylcellulose) (HPC).
The mark [7] stands for this setting: dose: 200.0 mg/kg/injection, schedule: Q04DX003 (ip), vehicle: saline with Tween-80.
The mark [8] stands for this setting: dose: 400.0 mg/kg/injection, schedule: Q01DX009 (ip), vehicle: saline with Tween-80.
Where [9] appears, read: dose: 400.0 mg/kg/injection, schedule: Q04DX003 (ip), vehicle: Klucel (hydroxypropylcellulose) (HPC).
[10] abbreviates: dose: 6.25 mg/kg/injection, schedule: Q01DX009 (ip), vehicle: saline with Tween-80.

Turning to `CCOC(N)=O`, the T/C is, setting by setting: under setting [1], 120 % of control; (dose: 125.0 mg/kg/injection, schedule: Q01DX010 (ip), vehicle: saline) 154 % of control; (dose: 200.0 mg/kg/injection, schedule: Q01DX009 (ip), vehicle: saline) 90 % of control; (dose: 250.0 mg/kg/injection, schedule: Q01DX010 (ip), vehicle: saline) 154 % of control; (dose: 400.0 mg/kg/injection, schedule: Q01DX009 (ip), vehicle: saline) 100 % of control; (dose: 500.0 mg/kg/injection, schedule: Q01DX010 (ip), vehicle: saline) 113 % of control.
As for `CCC(C)NC(=S)NN` (configuration not stated), the T/C is 95 % of control (dose: 10.0 mg/kg/injection, schedule: Q01DX009 (ip), vehicle: saline with Tween-80); 100 % of control (dose: 20.0 mg/kg/injection, schedule: Q01DX009 (ip), vehicle: saline with Tween-80); 95 % of control (dose: 40.0 mg/kg/injection, schedule: Q01DX009 (ip), vehicle: saline with Tween-80).
For `O=[N+]([O-])c1ccc(Cl)c2nonc12`, the T/C (dose: 15.0 mg/kg/injection, schedule: Q01DX009 (ip), vehicle: saline with Tween-80) was 103 % of control.
Regarding `Cc1nc2ccccc2c(=O)n1-c1nccs1`, the T/C reads like this: (dose: 50.0 mg/kg/injection, schedule: Q01DX005 (ip), vehicle: saline with Tween-80) 102 % of control; (dose: 100.0 mg/kg/injection, schedule: Q01DX005 (ip), vehicle: saline with Tween-80) 107 % of control; (dose: 200.0 mg/kg/injection, schedule: Q01DX005 (ip), vehicle: saline with Tween-80) 102 % of control.
Take `Clc1ccc(-c2nc(-c3ccccc3)c(-c3ccccc3)o2)cc1`: the T/C is 100 % of control (dose: 50.0 mg/kg/injection, schedule: Q01DX009 (ip), vehicle: saline with Tween-80); 111 % of control under setting [2]; 116 % of control under setting [3].
As to `OC(Cc1ccnc2ccccc12)C(Cl)(Cl)Cl` (configuration not stated), the T/C runs as follows: (dose: 50.0 mg/kg/injection, schedule: Q04DX003 (ip), vehicle: saline with Tween-80) 100 % of control; under setting [2], 100 % of control; under setting [4], 105 % of control; under setting [5], 100 % of control; under setting [3], 100 % of control; under setting [6], 100 % of control. Moreover, the T/C is 105 % of control under setting [7], 100 % of control under setting [8] and 115 % of control under setting [9].
For the compound `[Ni+2].[SH2+]C([SH2+])=Nc1ccccc1.[SH2+]C([SH2+])=Nc1ccccc1.c1ccc(C[P+](c2ccccc2)(c2ccccc2)c2ccccc2)cc1`, the T/C reads like this: (dose: 0.5 mg/kg/injection, schedule: Q01DX009 (ip), vehicle: saline) 115 % of control; (dose: 1.0 mg/kg/injection, schedule: Q01DX009 (ip), vehicle: saline) 95 % of control and 120 % of control; (dose: 1.0 mg/kg/injection, schedule: Q04DX003 (ip), vehicle: other) 95 % of control; (dose: 3.0 mg/kg/injection, schedule: Q01DX009 (ip), vehicle: saline) 118 % of control and 120 % of control; (dose: 3.0 mg/kg/injection, schedule: Q04DX003 (ip), vehicle: other) 108 % of control; (dose: 4.0 mg/kg/injection, schedule: Q01DX009 (ip), vehicle: saline) 100 % of control. Moreover, the T/C (dose: 6.0 mg/kg/injection, schedule: Q01DX009 (ip), vehicle: saline) is 104 % of control and 105 % of control; the T/C (dose: 6.0 mg/kg/injection, schedule: Q04DX003 (ip), vehicle: other) was 95 % of control; the T/C (dose: 9.0 mg/kg/injection, schedule: Q01DX009 (ip), vehicle: saline) was 110 % of control and 118 % of control; the T/C (dose: 10.0 mg/kg/injection, schedule: Q01DX009 (ip), vehicle: Klucel (hydroxypropylcellulose) (HPC)) is 115 % of control.
On to `CC(=O)C/C(C)=N/NC(=O)c1ccncc1`, for which, for the setting “dose: 150.0 mg/kg/injection, schedule: Q01DX009 (ip), vehicle: saline with Tween-80”, the T/C was 90 % of control.
On to `O=c1c(O)c(-c2ccccc2)oc2ccccc12`, for which the T/C is 95 % of control (dose: 100.0 mg/kg/injection, schedule: Q01DX009 (ip), vehicle: Klucel (hydroxypropylcellulose) (HPC)); 91 % of control and 103 % of control under setting [4]; 100 % of control (dose: 200.0 mg/kg/injection, schedule: Q01DX009 (ip), vehicle: Klucel (hydroxypropylcellulose) (HPC)); 91 % of control and 92 % of control under setting [6]; 108 % of control (dose: 400.0 mg/kg/injection, schedule: Q01DX009 (ip), vehicle: Klucel (hydroxypropylcellulose) (HPC)); 95 % of control and 96 % of control under setting [9].
As to `c1nc(SSc2ncnc3nc[nH]c23)c2[nH]cnc2n1`, the T/C reads like this: (dose: 3.7 mg/kg/injection, schedule: Q04DX003 (ip), vehicle: saline) 87 % of control; (dose: 7.5 mg/kg/injection, schedule: Q04DX003 (ip), vehicle: saline) 91 % of control; (dose: 25.0 mg/kg/injection, schedule: Q04DX003 (ip), vehicle: saline with Tween-80) 100 % of control; (dose: 50.0 mg/kg/injection, schedule: Q04DX003 (ip), vehicle: saline) 120 % of control; under setting [5], 111 % of control; (dose: 100.0 mg/kg/injection, schedule: Q04DX003 (ip), vehicle: saline) 87 % of control. Further, the T/C is, setting by setting: (dose: 150.0 mg/kg/injection, schedule: Q04DX003 (ip), vehicle: saline) 90 % of control; (dose: 225.0 mg/kg/injection, schedule: Q04DX003 (ip), vehicle: saline) 90 % of control; (dose: 335.0 mg/kg/injection, schedule: Q04DX003 (ip), vehicle: saline) 90 % of control.
With `COc1ccc(OC)c2c1C(=O)CC2C` (configuration not stated), the T/C (dose: 25.0 mg/kg/injection, schedule: Q01DX009 (ip), vehicle: saline) is 105 % of control; the T/C (dose: 50.0 mg/kg/injection, schedule: Q01DX009 (ip), vehicle: saline) is 91 % of control; the T/C under setting [1] was 98 % of control.
Consider `[Au].c1ccc(-c2nn[nH]n2)cc1.c1ccc(P(c2ccccc2)c2ccccc2)cc1`, for which the T/C reads like this: under setting [10], 104 % of control; (dose: 12.5 mg/kg/injection, schedule: Q01DX009 (ip), vehicle: saline with Tween-80) 106 % of control; (dose: 25.0 mg/kg/injection, schedule: Q01DX009 (ip), vehicle: saline with Tween-80) 123 % of control.
For `Cc1cc(C(C)(CC(C)C)c2ccc(O)c(C)c2)ccc1O`, the T/C reads like this: (dose: 100.0 mg/kg/injection, schedule: Q01DX009 (ip), vehicle: gum acacia) 120 % of control; (dose: 200.0 mg/kg/injection, schedule: Q01DX009 (ip), vehicle: gum acacia) 108 % of control.
In the case of `c1ccc(-c2c[se]nn2)cc1`, the T/C was 102 % of control (dose: 1.56 mg/kg/injection, schedule: Q01DX009 (ip), vehicle: saline + alcohol); 100 % of control (dose: 3.13 mg/kg/injection, schedule: Q01DX009 (ip), vehicle: saline + alcohol); 89 % of control (dose: 6.25 mg/kg/injection, schedule: Q01DX009 (ip), vehicle: saline + alcohol); 86 % of control under setting [10].
On to `NCCCn1c2ccccc2c2cnccc21`, for which the T/C runs as follows: (dose: 5.0 mg/kg/injection, schedule: Q01DX009 (ip), vehicle: water) 105 % of control; (dose: 10.0 mg/kg/injection, schedule: Q01DX009 (ip), vehicle: water) 94 % of control; (dose: 20.0 mg/kg/injection, schedule: Q01DX009 (ip), vehicle: water) 119 % of control; (dose: 25.0 mg/kg/injection, schedule: Q01DX009 (ip), vehicle: water) 91 % of control; (dose: 25.0 mg/kg/injection, schedule: Q04DX003 (ip), vehicle: water) 103 % of control; (dose: 40.0 mg/kg/injection, schedule: Q01DX009 (ip), vehicle: water) 119 % of control. In addition, the T/C by setting is: (dose: 50.0 mg/kg/injection, schedule: Q04DX003 (ip), vehicle: water) 107 % of control; (dose: 100.0 mg/kg/injection, schedule: Q04DX003 (ip), vehicle: water) 99 % of control.
With `c1ccc(-c2nnc3oc(-c4ccco4)nn23)cc1`, the T/C by setting is: under setting [2], 91 % of control; under setting [5], 90 % of control; under setting [3], 108 % of control; under setting [7], 100 % of control; under setting [8], 100 % of control; (dose: 400.0 mg/kg/injection, schedule: Q04DX003 (ip), vehicle: saline with Tween-80) 95 % of control.
